Results reported in article PMC10827914 (Cellular and Molecular Life Sciences: CMLS, 2024).

Assays:
[1] = tested on: CD13 expressed in HUVEC; assay: Inhibition of cell-associated CD13 enzymatic activity, HUVEC; assay type: cell-based, human; conditions: 3 × 10^5 cells/well, L-alanine p-nitroanilide, 30 min, 37 °C, absorbance 405 nm
Method: (§1) Fig. 5 Quantification of CD13 expressed by HL-60 and HUVEC by western blotting and FACS analyses, and determination of their enzymatic activity. A Western blotting (WB) analysis of CD13 expression in HL-60 cells and HUVEC. For both cell lines, 2 µg of cell lysates were loaded in each well (n = 4–5 replicates, as indicated). After blotting, the membrane was cut and analyzed for CD13 and actin expression as described in Material and methods. The results of one representative experiment, out of three independent experiments performed, are shown (bars, ratio of CD13/actin band intensity, mean ± SEM). Recombinant human CD13 (rCD13) (20 ng) was loaded as positive control. MW, molecular weight markers. B FACS analysis of CD13 expression in HUVEC and HL-60 cells. The cells were incubated with mAb WM15 (10 μg/mL) and stained with a FITC-labeled goat anti-mouse IgG (H + L) secondary antibody. Data were expressed as fluorescence intensity and normalized to the number of cells. The cumulative results of three independent experiments are shown (each performed in duplicate; mean ± SEM). C Enzyme activity assay of CD13 expressed in HUVEC and HL-60 cells. […] Absorbance at 405 nm was measured using a plate reader. The enzyme units in each sample were calculated using rCD13 as a standard and were normalized to the number of cells. […] The absorbance was measured at 405 nm using a plate reader. […]

[2] = tested on: CD13 expressed in HL-60 cells; assay: Inhibition of cell-associated CD13 enzymatic activity, HL-60 cells; assay type: cell-based, human; conditions: 3 × 10^5 cells/well, L-alanine p-nitroanilide, 30 min, 37 °C, absorbance 405 nm
Method: as §1

[3] = tested on: soluble CD13 from human serum (sCD13); assay: Competitive ELISA of sCD13 binding to mAb WM15; conditions: plates coated with mAb WM15 5 μg/mL, human serum diluted 1:2, 2 h, room temperature
Method: Fig. 4 The active site of membrane CD13 expressed by HUVEC, but not that of soluble CD13 or membrane CD13 expressed by HL60 cells, is accessible to G4-TNF. A Competitive effects of G4 and G4-TNF on the binding of mAb WM15 (anti-CD13) to sCD13 or rCD13 showing the lack of binding of G4-TNF to natural and recombinant soluble CD13 (sCD13 and rCD13). G4, scrambled G4 (GCRSNCYRVG), and TNF were used as positive (G4) and negative (scrambled G4, TNF) controls. The sCD13 competition assay was performed as follows: microplates were coated with mAb WM15 (5 μg/mL) in DPBS and incubated overnight at 4 °C. […] The mixtures were incubated for 2 h at room temperature and washed with DPBS. To detect bound sCD13, we added an anti-CD13 rabbit polyclonal antibody (1:1000, 1 h at room temperature), washed with DPBS, and added peroxidase-labeled goat anti-rabbit secondary antibody (1:2000, 1 h). Bound peroxidase was detected using o-phenylendiamine chromogenic substrate. The absorbance of o-phenylenediamine was measured at 490 nm using an ELISA plate reader (Bio-Rad). Cumulative results of two independent experiments, each performed in duplicate, are shown (mean ± SEM). The rCD13 competition assay was performed as described in Supplementary Fig. S2 (one experiment in duplicate, mean ± SEM). […]

[4] = tested on: HUVEC; assay: Cytotoxicity assay on adherent and non-adherent HUVEC; assay type: cell-based, human; conditions: adherent and non-adherent cells, concentrations lower than 100 pg/ml, 24 h, MTT
Method: The supernatant was removed using a Pasteur pipet connected to a vacuum pump, and 200 µL of dimethyl sulfoxide was then added to each well to dissolve the formazan crystals. The absorbance at 570 nm was then read using a microtiter plate reader.
The cytotoxicity assay with cell in suspension was carried out following the same protocol except that the overnight incubation of the microtiter plate after cell plating was omitted.

## VGCARRYCS-TNF [G4-TNF, recombinant murine TNF fused to the C-terminus of G4]
[1]
  Inhibition of CD13 enzymatic activity associated with HUVEC (in words): did not inhibit
[2]
  Inhibition of CD13 enzymatic activity associated with HL-60 cells (in words): did not inhibit
[3]
  Competition of sCD13 binding to mAb WM15 (in words): no competition was observed
[4]
  Cytotoxic effects on HUVEC (in words): No or minimal cytotoxic effects
